Measured values from patent US20230312587A1, “PTERIDINONE COMPOUNDS AND USES THEREOF” (Vertex Pharmaceutical Incorporated, priority 2018, published 2023).
Read-outs that look alike come from different tables or passages of the source.

Legend:
Assay type in all cases: cell-based
[1] = test system: HepG2 parental; test: In vitro cell viability (CellTiter-Glo), HepG2 parental; settings: 96 hours, read-out: HepG2 viability
Method in brief: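 Parental HepG2 cells, 5,000 per well in DMEM with 10% FBS, attached overnight, then exposed to a compound concentration range for 96 h. Viability by CellTiter-Glo luminescence; IC50 reported in bins (A <0.5 µM up to D ≥10 µM).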

[2] = test system: Colo-205 cells; test: Calcium flux assay (FLIPR Calcium 5); settings: FLIPR Calcium 5, measured over 36 minutes
Procedure: Compounds described herein induced ER stress by causing intracellular calcium flux. Calcium flux was measured in Colo-205 cells using the FLTPR® Calcium 5 Assay Kit according to manufacter's protocol (Molecular Devices, Cat. #R8186) on a FLIPR3 system (Molecular Devices). Calcium flux is measured over 36 minutes. The Colo-205 calcium flux assay data are summarized in Table 47: A<0.6 μM; 0.6 μM≤B<2.0 μM; 2.0 μM≤C<10.0 μM; D≥10.0 μM.

[3] = test system: HepG2 XBP1(u)-Luc cells; test: HepG2 XBP1 reporter assay; settings: 6 h
Method in brief: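 Reporter cells are HepG2 stably carrying unspliced XBP1 fused to firefly luciferase, which becomes in-frame after IRE1alpha-mediated splicing. SteadyGlo luminescence was normalized to DMSO-treated cells for IC50 calculation.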

[4] = test system: Hek293 WFS1 over-expressor; test: In vitro cell viability (CellTiter-Glo), Hek293 WFS1 over-expressor; settings: read-out: Hek293 WFS1 viability
Method in brief: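 HEK293 cells stably overexpressing WFS1 via retroviral transduction (puromycin-selected), with empty-vector cells as counterpart, plated 1,000/well. Compounds added at various concentrations after overnight attachment; viability by CellTiter-Glo luminescence after 96 h, reported as IC50.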

[5] = test system: Hek293 empty vector; test: In vitro cell viability (CellTiter-Glo), Hek293 empty vector; settings: read-out: Hek293 empty vector viability
Method in brief: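 HEK293 cells stably transduced with empty pCLPCX retroviral vector (puromycin-selected), seeded 1,000 cells/well, treated next day with compounds at various concentrations. Viability read by CellTiter-Glo luminescence 96 hrs after compound addition; IC50 derived.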

[6] = Homo sapiens, HEK293, Hek293 WFS1 over-expressing cells
[7] = Hek293 WFS1 over-expressing cells

In the case of `Cc1nc(N(C)Cc2cnn(Cc3ccc(C(F)(F)F)nc3)c2)nc2c1NC(=O)[C@H](C)N2C` [Compound 403, (7S)-4,7,8-trimethyl-2-(methyl((1-((6-(trifluoromethyl)pyridin-3-yl)methyl)-1H-pyrazol-4-yl)methyl)amino)-7,8-dihydropteridin-6(5H)-one], the IC50 ([1]; Homo sapiens) is reported as ≥ 10000 nM, the EC50 ([2]; Homo sapiens, COLO 205, 0.6 h) is reported as ≥ 10000 nM and the IC50 ([3]; Homo sapiens) is reported as ≥ 10000 nM. The IC50 [4, 6] was ≥ 3000 nM and the IC50 ([5]; Homo sapiens, HEK293) was ≥ 3000 nM.

`CC(=O)N(Cc1cnn(Cc2ccc(C(F)(F)F)nc2)c1)c1nc(C)c2c(n1)N(C)[C@@H](C)C(=O)N2` [Compound 405, (7S)-N-((1-((6-(trifluoromethyl)pyridin-3-yl)methyl)-1H-pyrazol-4-yl)methyl)-N-(4,7,8-trimethyl-6-oxo-5,6,7,8-tetrahydropteridin-2-yl)acetamide] was tested, and the IC50 ([1]; Homo sapiens) was ≥ 10000 nM, the EC50 ([2]; Homo sapiens, COLO 205, 0.6 h) was ≥ 10000 nM and the IC50 ([3]; Homo sapiens) was ≥ 10000 nM. For the same compound, the IC50 [4, 6] was ≥ 3000 nM and the IC50 ([5]; Homo sapiens, HEK293) was ≥ 3000 nM.

In the case of `Cc1nc(NCc2cnn(Cc3ccc(Cl)nc3)c2)nc2c1NC(=O)[C@H](C(C)C)N2C` [Compound 409, (7S)-2-(((1-((6-chloropyridin-3-yl)methyl)-1H-pyrazol-4-yl)methyl)amino)-7-isopropyl-4,8-dimethyl-7,8-dihydropteridin-6(5H)-one], the IC50 ([1]; Homo sapiens) is reported as < 500 nM, the EC50 ([2]; Homo sapiens, COLO 205, 0.6 h) is reported as 600 to 2000 nM and the IC50 ([3]; Homo sapiens) is reported as < 600 nM. The IC50 [4, 6] was < 60 nM and the IC50 ([5]; Homo sapiens, HEK293) was ≥ 3000 nM.

In the case of `Cc1nc(NCc2cn(Cc3ccc(C(F)(F)F)nc3)nc2Br)nc2c1NC(=O)[C@H](C)N2C` [Compound 412, (S)-2-(((3-bromo-1-((6-(trifluoromethyl)pyridin-3-yl)methyl)-1H-pyrazol-4-yl)methyl)amino)-4,7,8-trimethyl-7,8-dihydropteridin-6(5H)-one], the IC50 ([1]; Homo sapiens) is reported as 2000 to 10000 nM, the EC50 ([2]; Homo sapiens, COLO 205, 0.6 h) is reported as 600 to 2000 nM and the IC50 ([3]; Homo sapiens) is reported as < 600 nM. For the same compound, the IC50 [4, 6] was 60 to 600 nM and the IC50 ([5]; Homo sapiens, HEK293) was ≥ 3000 nM.

Compound `Cc1nc(NCc2cnn(Cc3cncc(F)c3)c2)nc2c1NC(=O)[C@H](C(C)C)N2C` [Compound 415, (7S)-2-(((1-((5-fluoropyridin-3-yl)methyl)-1H-pyrazol-4-yl)methyl)amino)-7-isopropyl-4,8-dimethyl-7,8-dihydropteridin-6(5H)-one] has an IC50 ([1]; Homo sapiens) of 500 to 2000 nM, an EC50 ([2]; Homo sapiens, COLO 205, 0.6 h) of 600 to 2000 nM and an IC50 ([3]; Homo sapiens) of 600 to 2000 nM. For the same compound, the IC50 [4, 6] was < 60 nM and the IC50 ([5]; Homo sapiens, HEK293) was ≥ 3000 nM.

With `Cc1nc(NCc2cnn(Cc3ccc(C(F)(F)F)nc3C(C)(C)O)c2)nc2c1NC(=O)[C@H](C)N2C` [Compound 416, (7S)-2-(((1-((2-(2-hydroxypropan-2-yl)-6-(trifluoromethyl)pyridin-3-yl)methyl)-1H-pyrazol-4-yl)methyl)amino)-4,7,8-trimethyl-7,8-dihydropteridin-6(5H)-one] the IC50 ([1]; Homo sapiens) was < 500 nM, the EC50 ([2]; Homo sapiens, COLO 205, 0.6 h) was 600 to 2000 nM and the IC50 ([3]; Homo sapiens) was < 600 nM. The IC50 [4, 6] was < 60 nM and the IC50 ([5]; Homo sapiens, HEK293) was ≥ 3000 nM.

With `Cc1nc(NCc2cnn(Cc3ccc(C(F)(F)F)nc3Cl)c2)nc2c1NC(=O)[C@H](C)N2C` [Compound 418, (7S)-2-(((1-((2-chloro-6-(trifluoromethyl)pyridin-3-yl)methyl)-1H-pyrazol-4-yl)methyl)amino)-4,7,8-trimethyl-7,8-dihydropteridin-6(5H)-one] the IC50 ([1]; Homo sapiens) was < 500 nM, the EC50 ([2]; Homo sapiens, COLO 205, 0.6 h) was < 600 nM and the IC50 ([3]; Homo sapiens) was < 600 nM. The IC50 [4, 6] was < 60 nM and the IC50 ([5]; Homo sapiens, HEK293) was ≥ 3000 nM.

With `Cc1nc(NCc2cnn(Cc3ccc(C(F)(F)F)nc3C(C)O)c2)nc2c1NC(=O)[C@H](C)N2C` (stereo partly drawn) [Compound 419, (7S)-2-(((1-((2-((S)-1-hydroxyethyl)-6-(trifluoromethyl)pyridin-3-yl)methyl)-1H-pyrazol-4-yl)methyl)amino)-4,7,8-trimethyl-7,8-dihydropteridin-6(5H)-one] the IC50 ([1]; Homo sapiens) was 2000 to 10000 nM, the EC50 ([2]; Homo sapiens, COLO 205, 0.6 h) was 2000 to 10000 nM and the IC50 ([3]; Homo sapiens) was 2000 to 10000 nM. The IC50 [4, 6] was 60 to 600 nM and the IC50 ([5]; Homo sapiens, HEK293) was ≥ 3000 nM.

In the case of `Cc1nc(NCc2cnn(Cc3ccc(F)nc3)c2)nc2c1NC(=O)[C@H](C1CC1)N2C` [Compound 421, (7S)-7-cyclopropyl-2-(((1-((6-fluoropyridin-3-yl)methyl)-1H-pyrazol-4-yl)methyl)amino)-4,8-dimethyl-7,8-dihydropteridin-6(511)-one], the IC50 [1] is reported as 500 to 2000 nM, the EC50 [2] is reported as 600 to 2000 nM and the IC50 [3] is reported as < 600 nM. For the same compound, the IC50 [4, 7] was 60 to 600 nM and the IC50 ([5]; Hek293 empty vector) was ≥ 3000 nM.

With `Cc1cc(F)ncc1Cn1cc(CNc2nc(C)c3c(n2)N(C)[C@@H](C(C)C)C(=O)N3)cn1` [Compound 423, (7S)-2-(((1-((6-fluoro-4-methylpyridin-3-yl)methyl)-1H-pyrazol-4-yl)methyl)amino)-7-isopropyl-4,8-dimethyl-7,8-dihydropteridin-6(5H)-one] the IC50 ([1]; Homo sapiens) was < 500 nM, the EC50 ([2]; Homo sapiens, COLO 205, 0.6 h) was 600 to 2000 nM and the IC50 ([3]; Homo sapiens) was < 600 nM. The IC50 [4, 6] was < 60 nM and the IC50 ([5]; Homo sapiens, HEK293) was ≥ 3000 nM.

`Cc1nc(NCc2cnn(Cc3cnc(Cl)c(F)c3)c2)nc2c1NC(=O)[C@H](C(C)C)N2C` [Compound 424, (7S)-2-(((1-((6-chloro-5-fluoropyridin-3-yl)methyl)-1H-pyrazol-4-yl)methyl)amino)-7-isopropyl-4,8-dimethyl-7,8-dihydropteridin-6(5H)-one] was tested, and the IC50 ([1]; Homo sapiens) was < 500 nM, the EC50 ([2]; Homo sapiens, COLO 205, 0.6 h) was 600 to 2000 nM and the IC50 ([3]; Homo sapiens) was < 600 nM. The IC50 [4, 6] was < 60 nM and the IC50 ([5]; Homo sapiens, HEK293) was ≥ 3000 nM.

`Cc1ncc(Cn2cc(CNc3nc(C)c4c(n3)N(C)[C@@H](C(C)C)C(=O)N4)cn2)cc1F` [Compound 425, (7S)-2-(((1-((5-fluoro-6-methylpyridin-3-yl)methyl)-1H-pyrazol-4-yl)methyl)amino)-7-isopropyl-4,8-dimethyl-7,8-dihydropteridin-6(5H)-one] was tested, and the IC50 ([1]; Homo sapiens) was 500 to 2000 nM, the EC50 ([2]; Homo sapiens, COLO 205, 0.6 h) was 600 to 2000 nM and the IC50 ([3]; Homo sapiens) was 600 to 2000 nM. For the same compound, the IC50 [4, 6] was 60 to 600 nM and the IC50 ([5]; Homo sapiens, HEK293) was ≥ 3000 nM.

For `CC[C@H]1C(=O)Nc2cnc(NCc3cnn(Cc4ccc(C(F)(F)F)nc4)c3)nc2N1C` [Compound 427, (7S)-7-ethyl-8-methyl-2-(((1-((6-(trifluoromethyl)pyridin-3-yl)methyl)-1H-pyrazol-4-yl)methyl)amino)-7,8-dihydropteridin-6(5H)-one], the IC50 ([1]; Homo sapiens) was ≥ 10000 nM, the EC50 ([2]; Homo sapiens, COLO 205, 0.6 h) was 600 to 2000 nM and the IC50 ([3]; Homo sapiens) was 600 to 2000 nM. The IC50 [4, 6] was 60 to 600 nM and the IC50 ([5]; Homo sapiens, HEK293) was ≥ 3000 nM.

With `Cc1nc(NCc2cn(Cc3ccc(C(F)(F)F)nc3)cn2)nc2c1NC(=O)[C@H](C)N2C` [Compound 428, (S)-4,7,8-trimethyl-2-(((1-((6-(trifluoromethyl)pyridin-3-yl)methyl)-1H-imidazol-4-yl)methyl)amino)-7,8-dihydropteridin-6(5H)-one] the IC50 ([1]; Homo sapiens) was ≥ 10000 nM, the EC50 ([2]; Homo sapiens, COLO 205, 0.6 h) was ≥ 10000 nM and the IC50 ([3]; Homo sapiens) was ≥ 10000 nM. The IC50 [4, 6] was ≥ 3000 nM and the IC50 ([5]; Homo sapiens, HEK293) was ≥ 3000 nM.

“(7S)-2-(((1-((6-fluoro-2-isopropylpyridin-3-yl)methyl)-1H-pyrazol-4-yl)methyl)(methyl)amino)-7-isopropyl-4,8-dimethyl-7,8-dihydropteridin-6(5H)-one [Compound 430]” was tested, and the IC50 [1] was < 500 nM, the EC50 [2] was 600 to 2000 nM and the IC50 [3] was < 600 nM. The IC50 [4, 7] was < 60 nM and the IC50 ([5]; Hek293 empty vector) was ≥ 3000 nM.
